Columns and labels:
Botrytis cinerea = experiment: Activity against the grey mold Botrytis cinerea in the microtiterplate test; type: cell-based; conditions: relative growth vs active compound-free control (100%), MTP measured at 405 nm 7 days after inoculation
Septoria tritici = experiment: Activity against leaf blotch on wheat caused by Septoria tritici (microtiter plate); type: cell-based; conditions: relative growth vs active compound-free control (100%), MTP measured at 405 nm 7 days after inoculation
Pyricularia oryzae = type: cell-based; conditions: relative growth vs active compound-free control (100%), MTP measured at 405 nm 7 days after inoculation
Alternaria solani = experiment: Activity against early blight caused by Alternaria solani (microtiter plate); type: cell-based; conditions: relative growth vs active compound-free control (100%), MTP measured at 405 nm 7 days after inoculation
Leptosphaeria nodorum = experiment: Activity against wheat leaf spots caused by Leptosphaeria nodorum (microtiter plate); type: cell-based; conditions: relative growth vs active compound-free control (100%), MTP measured at 405 nm 7 days after inoculation
Fusarium culmorum = experiment: Green house: control of culm rot on pearl millet caused by Fusarium culmorum; type: in vivo; conditions: 63 ppm spray on pearl millet seedlings; inoculated 7 days later; % diseased leaf area assessed after 6 days; untreated control 90
Method: The spray solutions were prepared in several steps:
The stock solution were prepared: a mixture of acetone and/or dimethylsulfoxide and the wetting agent/emulsifier Wettol, which is based on ethoxylated alkylphenoles, in a relation (volume) solvent-emulsifier of 99 to 1 was added to 25 mg of the compound to give a total of 5 ml. Water was then added to total volume of 100 ml.
This stock solution was diluted with the described solvent-emulsifier-water mixture to the given concentration.
Pot-grown pearl millet seedlings were sprayed to run-off with an aqueous suspension, containing the concentration of active ingredient or their mixture as described below.The plants were allowed to air-dry. Seven days later the plants were inoculated with an spore suspension of Fusarium culmorum in a aqueous biomalt solution. Then the trial plants were immediately transferred to a humid chamber. After 6 days at 23-25° C. and a relative humidity close to 100% the extent of fungal attack on the leaves was visually assessed as % diseased leaf area.

SMILES | Growth (%) at 32 ppm Botottis cinerea (Botrytis cinerea) | Growth (%) at 32 ppm Septona triad (Septoria tritici) | Growth (%) at 31 ppm Leptosphaeria nodorum (Leptosphaeria nodorum) | Disease (%) at 63 ppm (Fusarium culmorum) | further results
Cc1ccc(C2=CC(C)(C)Cc3ccccc32)cc1C | 84% | 93% |  |  | 
Cc1cc(C2=NC(C)(C)Cc3ccccc32)cnc1C |  |  | 72% |  | Growth (%) at 31 ppm Pyricularia (Pyricularia oryzae): 23%; Growth (%) at 31 ppm Alternaria solanioryzae (Alternaria solani): 47%
Cc1cc(C2=NC(C)(C)Cc3c(Br)cccc32)cnc1C [I-1, 5-Bromo-1-(5,6-dimethyl-3-pyridyl)-3,3-dimethyl-4H-isoquinoline] | 0% | 0% |  | 53% | 
Cc1cc(C2=NC(C)(C)Cc3c(F)cccc32)cnc1C [drawing 1380] |  |  | 39% |  | 
Cc1cc(C2=NC(C)(C)Cc3c(F)cccc32)cnc1C [drawing 1382] |  |  |  | 88% | 
